Results published in patent US20230352136A1, “SYSTEMS AND METHODS TO EVALUATE DRUG-INDUCED GASTROINTESTINAL DYSRHYTHMIA” (The Chinese University of Hong Kong, priority 2022, published 2023).

Assays:
[1] = tested on: duodenum pacemaker potentials; assay: MEA recording of pacemaker potentials (slow waves), isolated duodenum; assay type: cell-based, Suncus murinus; settings: for amplitude of slow waves: duodenum
Experimental: (§1) Pacemaker potentials were recorded extracellularly on a 60-channel MEA system using full-thickness GI segments isolated from Suncus murinus. Basic slow-wave parameters, including frequency, amplitude, slope, period, and power partitions, were derived. Signal regularity was also evaluated using detrended fluctuation analysis and sample entropy analysis.
(§2) Electrical recordings were taken after the animals were euthanised by carbon dioxide asphyxiation. […] The mesentery was removed, and the lumen contents were flushed with Krebs' medium. Segments (−1 cm) of duodenum, ileum, and colon were then isolated, but the stomach was kept intact. All tissue segments and the entire stomach were incubated in Krebs' medium containing nifedipine (1 μM; Sigma Aldrich, St Louis, MO, USA) for 15 min to inhibit smooth muscle activity. Pacemaker potentials were recorded using an MEA platform (MEA1060 1200×; Multichannel Systems, Reutlingen, Germany) as previously described. Briefly, tissues were placed onto the electrode field of an MEA chip (60-channel, 8×8 configuration, 3D-tip-shaped electrodes with a height of […] and an inter-electrode distance of 200 μm; Ayanda Biosystems SA, Lausanne, Switzerland). Intestinal segments were aligned horizontally to the recording electrode field, while the stomach was oriented with the antrum facing the recording electrode field. The chamber temperature was maintained at 37° C. and the sampling frequency was 1 kHz. […] All data were recorded and saved using MC_Rack (v 4.6.2, Multichannel Systems).
(§3) Data analysis included basic slow-wave feature extraction using a custom automated program. […] The time point of drug administration was automatically identified based on the signal disturbance. The period of signal disturbance (20 s before and 40 s after the peak of the disturbance) was excluded from the analysis. Data were filtered using a passband between 0.1 Hz and 1 Hz and a stopband between 0.01 Hz and 2 Hz. The basic slow-wave features extracted were similar to those extracted in the inventors' previous studies. However, instead of using several templates and scripts written in Microsoft Excel and Spike 2, a one-step automatic and blinded MATLAB programme was used for data analysis. There were four major changes to the data analysis process as compared to the inventors' previous studies. First, auto-identification of the drug disturbance time point was used, rather than manual identification. Second, standardised signal filters were built in MATLAB to match the entire data analysis pipeline. […] Frequency partitioning was performed by segmenting the power spectrum of 0-50 cpm into the following four segments: brady-rhythm (within the range 2-[DF−1] cpm), normal-rhythm ([DF±1] cpm), tachy-rhythm (within the range [DF+1]-40 cpm), and out-of-range frequencies (<2 cpm and >40 cpm). Third, waveforms were identified using the MATLAB ‘findpeaks’ function, with a minimum peak height of […] at baseline and […] after drug treatment, with a step time of 5.4 s for the intestine and 12 s for the stomach. The average peak-to-peak amplitude, slope, and period were derived for all detected waveforms. Fourth, propagation velocity was derived using phase-difference measurements, based on the auto-select seed electrode with the highest percentage of normal rhythms.
(§4) Dominant activation pattern identification included a phase-based analysis performed as previously described (Liu et al., 2021). Briefly, high-frequency spikes with amplitudes greater than […] were masked. Continuous frequencies were identified using continuous wavelet transformation, and the transformed data were used to plot spectrograms. […] High quality data were subjected to Hilbert transformation to identify the phase and frequency of the signals. Individual activation times were clustered using k-means clustering every 20 s and major activation patterns were grouped using a structural similarity index.

[2] = tested on: stomach pacemaker potentials; assay: MEA recording of pacemaker potentials (slow waves), isolated stomach; assay type: cell-based, Suncus murinus
Experimental: as §1, §2, §3, §4

[3] = duodenal tissues, 0.1-100 μM, p>0.05, n=5-9

Cl.NCCc1ccc(O)c(O)c1 [dopamine, 3-Hydroxytyramine hydrochloride]
waveform period ([1]; duodenal tissues, 100 nM, baseline 2.52±0.21, p<0.05, n=7): 3.27 ± 0.47 s | DFA fluctuation function (smaller scale 3-25) ([1]; duodenal tissues, 100 nM, baseline 2.65±0.08, p<0.01, n=6): 2.51±0.05 | percentage of tachy-rhythms ([1]; duodenal tissues, 100 nM, baseline 12.5±5.7, p<0.05, n=7): 2.1±0.7% | percentage of dominant baseline activation patterns, second pattern ([1]; duodenal tissues, 100 nM, baseline 23.3±5.7, p<0.05, n=7): 8.4±11.2% | average frequency (AF) ([1]; duodenal tissues, 100 nM, baseline 24.1±2.0, p<0.05, n=7): 20.9±0.7 cpm | dominant frequency (DF) of slow waves ([1]; duodenal tissues, 100 nM, baseline 27.1±2.2, p<0.05, n=7): 24.9±1.2 cpm | percentage of dominant baseline activation patterns, first pattern ([1]; duodenal tissues, 100 nM, baseline 32.3±11.8, p<0.01, n=7): 11.1±13.0% | percentage of brady-rhythms ([1]; duodenal tissues, 100 nM, baseline 35.7±10.3, p<0.0001, n=7): 87.2±7.7% | percentage of normal rhythms ([1]; duodenal tissues, 100 nM, baseline 46.1±11.2, p<0.001, n=7): 4.8±4.6% | slope of waveforms ([1]; duodenal tissues, 100 nM, baseline 321.7±95.5, p<0.01, n=7): 166.9±57.7 μV s^−1 | DFA fluctuation function (larger scale 26-46) ([1]; duodenal tissues, 100 nM, baseline […], p<0.01, n=6): 1.98±0.11 | DFA fluctuation function (larger scale 26-46) ([1]; duodenal tissues, 1 μM, baseline 1.74±0.32, p<0.05, n=7): 1.63±0.38 | number of groups of activation patterns ([1]; duodenal tissues, 1 μM, baseline 6.2±1.0, p<0.05, n=6): 6.8±1.0 | percentage of brady-rhythms ([1]; duodenal tissues, 1 μM, baseline 25.8±12.3, p<0.05, n=6): 53.7±26.6% | percentage of dominant baseline activation patterns, first pattern ([1]; duodenal tissues, 1 μM, baseline 33.7±13.1, p<0.05, n=6): 12.8±9.4% | representative spectrogram, effect on DF ([1]; duodenal tissues, 10 μM): slightly shifted towards a lower frequency | wave fronts counted in representative spatio-temporal map (1 min) ([1]; duodenal tissues, 10 μM, 30 before treatment): 27 | average SampEn (smaller scale 1-5) ([1]; duodenal tissues, 10 μM, baseline 0.58±0.05, p<0.05, n=7): 0.60±0.04 | number of groups of activation patterns ([1]; duodenal tissues, 10 μM, baseline 5.9±0.7, p<0.05, n=9): 6.4±0.5 | percentage of dominant patterns (based on post-treatment data, FIG. 3E), second pattern ([1]; duodenal tissues, 10 μM, baseline 10.2±9.1, p<0.05, n=5): 18.5±2.3% | percentage of normal rhythms ([1]; duodenal tissues, 10 μM, baseline 52.4±14.7, p<0.05, n=9): 7.8±6.4% | slope of waveforms ([1]; duodenal tissues, 10 μM, baseline 202.4±50.6, p<0.05, n=9): 153.9±47.7 μV s^−1 | DFA fluctuation function (larger scale 26-46) ([1]; duodenal tissues, 100 μM, baseline 1.46±0.29, p<0.05, n=9): 1.36±0.31 | waveform period ([1]; duodenal tissues, 100 μM, baseline 2.44±0.72, p<0.05, n=5): 3.26 ± 1.29 s | percentage of dominant baseline activation patterns, third pattern ([1]; duodenal tissues, 100 μM, baseline 15.2±2.1, p<0.05, n=4): 5.9±3.6% | percentage of dominant patterns (based on post-treatment data, FIG. 3E), third pattern ([1]; duodenal tissues, 100 μM, baseline 20.3±10.8, p<0.05, n=4): 7.5±5.8% | average frequency (AF) ([1]; duodenal tissues, 100 μM, baseline 25.1±3.7, p<0.05, n=5): 22.2±5.4 cpm | dominant frequency (DF) of slow waves ([1]; duodenal tissues, 100 μM, baseline 28.6±4.1, p<0.05, n=5): 26.3±5.2 cpm | percentage of dominant baseline activation patterns, first pattern ([1]; duodenal tissues, 100 μM, baseline 29.3±5.5, p<0.01, n=4): 7.0±7.0% | percentage of brady-rhythms ([1]; duodenal tissues, 100 μM, baseline 43.3±11.6, p<0.05, n=5): 68.6±29.0% | slope of waveforms ([1]; duodenal tissues, 100 μM, baseline 322.2±108.6, p<0.01, n=5): 182.5±61.7 μV s^−1 | percentage of dominant baseline activation patterns, second pattern ([1]; duodenal tissues, 100 μM, baseline […], p<0.05, n=4): 7.4±4.1% | dominant power (DP), change vs baseline [1, 3]: No significant differences | propagation velocities, effect [1, 3]: did not affect | average SampEn (larger scale 6-50), effect ([1]; duodenal tissues, 0.1-100 μM, p>0.05, n=6-9): did not change | DFA fluctuation function (smaller scale 3-25) ([1]; duodenal tissues, 100 M, baseline 2.26±0.16, p<0.05, n=9): 2.18±0.16 | percentage of tachy-rhythms ([1]; duodenal tissues, 100 M, baseline 11.0±5.2, p<0.05, n=5): 5.4±4.9% | amplitude of slow waves ([1]; 100 nM, baseline 193.0±54.9, p<0.01, n=7): 114.1±37.7 μV | amplitude of slow waves ([1]; 10 μM, baseline 117.6±24.2, p<0.05, n=9): 97.4±13.7 μV | amplitude of slow waves ([1]; 100 μM, baseline 199.3±60.5, p<0.01, n=5): 121.1±27.3 μV | representative spectrogram, effect ([2]; 100 μM): reduced the DP of the DF | wave fronts counted in representative spatio-temporal map (1 min) ([2]; 100 μM, 9 before treatment): ~10 | DFA fluctuation function (smaller scale 3-25) ([2]; 100 μM, baseline 2.36±0.08, p<0.05, n=7): 2.27±0.16 | number of groups of activation patterns ([2]; 100 μM, baseline 4.3±1.0, p<0.05, n=8): 5.3±1.0 | average frequency (AF) ([2]; 100 μM, baseline 9.8±1.2, p<0.05, n=8): 11.8±1.8 cpm | percentage of tachy-rhythms ([2]; 100 μM, baseline 36.1±12.8, p<0.05, n=8): 60.2±15.4% | percentage of normal rhythms ([2]; 100 μM, baseline 55.1±7.2, p<0.01, n=8): 23.6±13.1% | dominant power (DP) of slow waves ([2]; 100 μM, baseline 888.0±691.5, p<0.05, n=8): 253.2±416.1 μV^2 | percentage of dominant patterns (based on post-treatment data, FIG. 3E), change vs baseline ([2]; 100 μM, p>0.05, n=4): No significant differences | percentage of dominant baseline activation patterns, change vs baseline ([2]; 100 μM, p>0.05, n=4, FIG. 3D): No significant differences | average SampEn (larger scale 6-50), effect ([2]; 100 uM, p>0.05, n=7): did not change | average SampEn (smaller scale 1-5), effect ([2]; 100 uM, p>0.05, n=7): did not change | DFA fluctuation function (larger scale 26-46), effect ([2]; 100 μM, p>0.05, n=7): did not change | amplitude of slow waves, change vs baseline ([2]; 100 μM, p>0.05, n=8): No significant differences | dominant frequency (DF), change vs baseline ([2]; 100 μM, p>0.05, n=8): No significant differences | propagation velocities, effect ([2]; 100 μM, p>0.05, n=8): did not affect | slope of waveforms, change vs baseline ([2]; 100 μM, p>0.05, n=8): No significant differences | waveform period, change vs baseline ([2]; 100 μM, p>0.05, n=8): No significant differences | wave propagation in video (FIG. 11B), effect ([2]; 100 M): wave propagation was inhibited, and amplitudes were reduced
